Data set [1] is described as follows: Binding affinity to recombinant influenza A virus A/WSN/33(H1N1) hemagglutin assessed as dissociation constant by surface plasmon resonance assay. Set-up: species or system Influenza A virus (A/WSN/1933(H1N1)). On the technique in general: Surface plasmon resonance follows binding to a sensor surface in real time, without labels.
Data set [2] concerns Influenza A virus (A/WSN/1933(H1N1)). Description: Binding affinity to recombinant influenza A virus A/WSN/33(H1N1) hemagglutin assessed as association constant by surface plasmon resonance assay.
Another data set deals with MDCK. Nature of the data set: Cytotoxicity against dog MDCK cells assessed as reduction in cell viability at 50 uM measured after 36 hrs by Celltiter-Glo luminescence assay. Format: cell-based, Canis lupus familiaris. (In ATP-based viability assays light output follows the ATP content of the culture.)
Data set [3] relates to Influenza A virus. Description: Antiviral activity against Influenza A virus A/WSN/33(H1N1) infected in MDCK cells assessed as inhibition of viral replication measured after 36 hrs by CellTiter-Glo assay. The format is functional, organism-based. The conditions noted are these: A/WSN/1933(H1N1).
Data set [4] can be described thus: Cytotoxicity against dog MDCK cells assessed as reduction in cell viability measured after 36 hrs by Celltiter-Glo luminescence assay. Format: cell-based, Canis lupus familiaris.
Data set [5] can be described thus: Selectivity ratio of CC50 for MDCK cells to IC50 for Influenza A virus A/WSN/33(H1N1) infected in MDCK cells. Format: toxicity, cell-based. The conditions noted are these: dog, read-out: Ratio CC50/IC50.
Data set [6] has as its system Influenza A virus. Description: Antiviral activity against Influenza A virus A/WSN/33(H1N1) infected in MDCK cells assessed as inhibition of virus-induced cytopathic effects at 50 uM after 36 hrs by microscopic analysis. The format is functional, A/WSN/1933(H1N1). Set-up: scale not given: the % may be the effect or the level left. A general note: Damage to the host cells serves as the signal in cytopathic effect assays.

In data set [7] the test system is Influenza A virus. Nature of the data set: Antiviral activity against Influenza A virus A/WSN/33(H1N1) infected in MDCK cells assessed as inhibition of virus-induced cell death at 50 uM cotreated with virus and cells for 1 hrs and measured after 36 hrs. Format: functional, A/WSN/1933(H1N1). On the set-up: scale not given: the % may be the effect or the level left. To be noted: time 37 hrs.

In data set [8] the test system is Influenza A virus. Nature of the data set: Antiviral activity against Influenza A virus A/WSN/33(H1N1) infected in MDCK cells assessed as inhibition of virus-induced cell death at 50 uM preincubated with cells for 30 mins followed by viral infection for 1 hr and measured after 36 hrs. On the set-up: scale not given: the % may be the effect or the level left. The format is functional, A/WSN/1933(H1N1). To be noted: time 2250 min, 37.5 h.

For data set [9], the system named is Influenza A virus. Description: Antiviral activity against Influenza A virus A/WSN/33(H1N1) infected in MDCK cells assessed as inhibition of virus-induced cell death at 50 uM preincubated with virus for 30 mins followed by cell infection for 1 hr and measured after 36 hrs. The format is functional, A/WSN/1933(H1N1). On the set-up: scale not given: the % may be the effect or the level left. The conditions noted are these: time 2250 min, 37.5 h.

Another data set has as its system Erythrocyte. Description: Inhibition of Influenza A virus A/WSN/33(H1N1) hemagglutinin assessed as inhibition of chicken erythrocytes hemagglutination upto 20 uM incubated for 30 mins. Format: cell-based. The conditions noted are these: Influenza A virus (A/WSN/1933(H1N1)), dose microM <=20, time 30.0 min.
A short description of data set [10]: Binding affinity to recombinant influenza A virus A/WSN/33(H1N1) hemagglutin by surface plasmon resonance assay. On the set-up: species or system Influenza A virus (A/WSN/1933(H1N1)).
Data set [11] in a line: Drug localization in cell membrane of MDCK cells at 25 uM incubated for 1 to 3 hrs by DOI staining based confocal microscopy analysis. Format: ADME, cell membranes, Canis lupus familiaris. To be noted: dog, time 1-3 hrs.
The nature of data set [12]: Drug localization in cytoplasm of MDCK cells at 25 uM incubated for 12 hrs by confocal microscopy analysis. Format: ADME, subcellular, Canis lupus familiaris. To be noted: dog.
Data set [13] can be described thus: Stability of compound in dog MDCK cells after 36 hrs. Format: ADME, cell-based, Canis lupus familiaris.
A short description of data set [14]: Drug uptake in dog MDCK cells assessed as increase in red fluorescence at 25 uM incubated for 1 hr by flow cytometry analysis. Format: ADME, cell-based, Canis lupus familiaris.
A short description of data set [15]: Drug uptake in dog MDCK cells assessed as increase in red fluorescence at 25 uM incubated for 3 hrs by flow cytometry analysis. The format is ADME, cell-based, Canis lupus familiaris.
The nature of data set [16]: Drug uptake in dog MDCK cells assessed as increase in red fluorescence at 25 uM incubated for 36 hrs by flow cytometry analysis. The format is ADME, cell-based, Canis lupus familiaris.
In data set [17] the test system is Influenza A virus. Nature of the data set: Antiviral activity against Influenza A virus A/WSN/33(H1N1) infected in MDCK cells assessed as reduction in antiviral activity preincubated with cells for 3 hrs followed by viral infection. The format is functional, A/WSN/1933(H1N1). On the set-up: scale not given: the % may be the effect or the level left.
In data set [18] the test system is Influenza A virus. Nature of the data set: Antiviral activity against Influenza A virus A/WSN/33(H1N1) infected in MDCK cells preincubated with cells for 5 hrs followed by viral infection. Format: functional, organism-based. The conditions noted are these: A/WSN/1933(H1N1).
The subject of data set [19] is Influenza A virus. Description: Antiviral activity against Influenza A virus A/WSN/33(H1N1) infected in MDCK cells preincubated with cells for 12 hrs followed by viral infection. The format is functional, organism-based. To be noted: A/WSN/1933(H1N1).
For data set [20], the system named is Influenza A virus. Description: Antiviral activity against Influenza A virus A/WSN/33(H1N1) infected in MDCK cells assessed as inhibition of viral replication at 100 uM measured after 36 hrs by CellTiter-Glo assay. Format: functional, organism-based. The conditions noted are these: A/WSN/1933(H1N1).

Activity calls are given as the source filed them. No cut-off for these calls is given here.

What is called Kd is the concentration at which binding is half-saturated. One may read the IC50 as the concentration that gives 50% inhibition. As a reminder, the CC50 is the concentration giving 50% cytotoxicity. Regarding `CCN(CC)c1ccc2c(c1)Oc1cc(N(CC)CC)ccc1C21c2ccccc2C(=O)N1CCNC(=O)[C@]12CC[C@@H](C)[C@H](C)[C@@H]1C1=CC[C@@H]3[C@@]4(C)CC[C@H](O)C(C)(C)[C@@H]4CC[C@@]3(C)[C@]1(C)CC2`, the Kd was 4.14 10^-2/s in data set [1] and 17.8 µM in data set [10]. The Ka in [2] was 2.33 10^3/M.s. Besides, the Activity entry is on record as “Non-Toxic” in the data set on MDCK; over 90% with Influenza A virus [6]; 91% in the data set on Influenza A virus [7]; 15% with Influenza A virus [8]; 95% in the data set with Influenza A virus [9]; 25% in the data set with Influenza A virus [17]. In addition, the half-maximal inhibitory concentration (IC50) with Influenza A virus [3] is 8.24 µM. Further, the 50% cytotoxic concentration (CC50) at 36 h in data set [4] amounted to 368 µM. The selectivity ratio in data set [5] was determined as 44.7. Also, in the data set on Influenza A virus [6] (A/WSN/1933(H1N1)), the result was Active. The inhibition entry with Erythrocyte was “Active”. Besides, the Drug uptake result in data set [11] is “Active”; in data set [12] it was “Active”; in data set [14], 52.4%; in data set [15], 62.6%; in data set [16] it was 97.5%. The Stabilty entry in [13] is given as “Stable”. Moreover, the outcome in the data set on Influenza A virus [18] and in the data set on Influenza A virus [19] was inactive.

In the case of `CCN(CC)c1ccc2c(-c3ccccc3C(=O)O)c3ccc(=[N+](CC)CC)cc-3oc2c1` [RHODAMINE], the result in the data set with Influenza A virus [20] was inactive. Besides, the IC50 in the data set with Influenza A virus [3] is over 100 µM.

With `C[C@H]1[C@H](C)CC[C@]2(C(=O)O)CC[C@]3(C)C(=CC[C@@H]4[C@@]5(C)CC[C@H](O)C(C)(C)[C@@H]5CC[C@]43C)[C@@H]12`, the figures for the Kd in [1] and in data set [10] were 7.1 10^-2/s and 41 µM, respectively. In data set [2], the Ka is 1.73 10^3/M.s. The Activity in the data set on Influenza A virus [6] was determined as 31%.

With `CC1(C)CC[C@]2(C(=O)O)CC[C@]3(C)C(=CC[C@@H]4[C@@]5(C)CC[C@H](O)C(C)(C)[C@@H]5CC[C@]43C)[C@H]2C1`, in the data set with Influenza A virus [6], the Activity is recorded as 17%.

As to `CCN(CC)c1ccc2c(c1)Oc1cc(N(CC)CC)ccc1C21c2ccccc2C(=O)N1CCNC(=O)[C@]12CCC(C)(C)C[C@@H]1C1=CC[C@@H]3[C@@]4(C)CC[C@H](O)C(C)(C)[C@@H]4CC[C@@]3(C)[C@]1(C)CC2`, the Activity entry was “Non-Toxic” in the data set with MDCK and over 90% with Influenza A virus [6]. Also, the IC50 with Influenza A virus [3] was found to be 14.3 µM.

As for `CCN(CC)c1ccc2c(c1)Oc1cc(N(CC)CC)ccc1C21c2ccccc2C(=O)N1CCNC(=O)[C@]12CCC(C)(C)C[C@@H]1C1=CC[C@@H]3[C@@]4(C)CC[C@H](O)C(C)(C)[C@@H]4CC[C@@]3(C)[C@]1(C)C[C@H]2O`, the Activity entry in the data set on MDCK is “Non-Toxic”; in the data set on Influenza A virus [6] it was over 90%. In the data set on Influenza A virus [3], the IC50 was 13.3 µM.

With `C=C(C)[C@@H]1CC[C@]2(C(=O)NCCN3C(=O)c4ccccc4C34c3ccc(N(CC)CC)cc3Oc3cc(N(CC)CC)ccc34)CC[C@]3(C)[C@H](CC[C@@H]4[C@@]5(C)CC[C@H](O)C(C)(C)[C@@H]5CC[C@]43C)[C@@H]12`, the Activity entry in the data set on MDCK is “Non-Toxic”. Further, in the data set with Influenza A virus [3], the IC50 was 8.36 µM. In data set [4], the CC50 at 36 h is 324 µM. Besides, the selectivity ratio in data set [5] came out at 38.8.
